Calls of active or inactive are those of the source. The calls are words filed in the database; no cut-off is given here.
Legend:
[1] = target: T1, Beta-galactosidase (Bos taurus) (UniProt Q58D55); test: Percentage inhibition of Beta-galactosidase from Bovine liver at 1 mM concentration
T1 sequence (whole entry): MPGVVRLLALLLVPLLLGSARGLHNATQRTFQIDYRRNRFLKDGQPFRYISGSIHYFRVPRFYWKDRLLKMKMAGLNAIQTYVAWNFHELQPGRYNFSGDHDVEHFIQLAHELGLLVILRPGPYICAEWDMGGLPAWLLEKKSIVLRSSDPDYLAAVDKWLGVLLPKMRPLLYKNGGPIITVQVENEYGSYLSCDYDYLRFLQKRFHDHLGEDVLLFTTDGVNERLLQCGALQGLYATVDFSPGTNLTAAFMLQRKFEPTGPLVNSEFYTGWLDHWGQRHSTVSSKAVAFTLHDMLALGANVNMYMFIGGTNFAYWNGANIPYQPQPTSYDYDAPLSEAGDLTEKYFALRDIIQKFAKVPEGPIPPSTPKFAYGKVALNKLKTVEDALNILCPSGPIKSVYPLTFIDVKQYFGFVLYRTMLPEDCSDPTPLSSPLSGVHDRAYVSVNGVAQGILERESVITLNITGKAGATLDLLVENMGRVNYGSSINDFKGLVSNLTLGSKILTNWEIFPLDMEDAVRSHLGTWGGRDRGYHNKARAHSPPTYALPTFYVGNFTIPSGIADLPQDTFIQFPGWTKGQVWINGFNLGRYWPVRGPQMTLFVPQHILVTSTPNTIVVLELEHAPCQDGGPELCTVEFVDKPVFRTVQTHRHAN

[2] = target: T2, Beta-galactosidase (Aspergillus niger) (UniProt P29853); test: Percentage inhibition of Beta-galactosidase from Aspergillus niger at 1 mM concentration; […]
T2 sequence (whole entry): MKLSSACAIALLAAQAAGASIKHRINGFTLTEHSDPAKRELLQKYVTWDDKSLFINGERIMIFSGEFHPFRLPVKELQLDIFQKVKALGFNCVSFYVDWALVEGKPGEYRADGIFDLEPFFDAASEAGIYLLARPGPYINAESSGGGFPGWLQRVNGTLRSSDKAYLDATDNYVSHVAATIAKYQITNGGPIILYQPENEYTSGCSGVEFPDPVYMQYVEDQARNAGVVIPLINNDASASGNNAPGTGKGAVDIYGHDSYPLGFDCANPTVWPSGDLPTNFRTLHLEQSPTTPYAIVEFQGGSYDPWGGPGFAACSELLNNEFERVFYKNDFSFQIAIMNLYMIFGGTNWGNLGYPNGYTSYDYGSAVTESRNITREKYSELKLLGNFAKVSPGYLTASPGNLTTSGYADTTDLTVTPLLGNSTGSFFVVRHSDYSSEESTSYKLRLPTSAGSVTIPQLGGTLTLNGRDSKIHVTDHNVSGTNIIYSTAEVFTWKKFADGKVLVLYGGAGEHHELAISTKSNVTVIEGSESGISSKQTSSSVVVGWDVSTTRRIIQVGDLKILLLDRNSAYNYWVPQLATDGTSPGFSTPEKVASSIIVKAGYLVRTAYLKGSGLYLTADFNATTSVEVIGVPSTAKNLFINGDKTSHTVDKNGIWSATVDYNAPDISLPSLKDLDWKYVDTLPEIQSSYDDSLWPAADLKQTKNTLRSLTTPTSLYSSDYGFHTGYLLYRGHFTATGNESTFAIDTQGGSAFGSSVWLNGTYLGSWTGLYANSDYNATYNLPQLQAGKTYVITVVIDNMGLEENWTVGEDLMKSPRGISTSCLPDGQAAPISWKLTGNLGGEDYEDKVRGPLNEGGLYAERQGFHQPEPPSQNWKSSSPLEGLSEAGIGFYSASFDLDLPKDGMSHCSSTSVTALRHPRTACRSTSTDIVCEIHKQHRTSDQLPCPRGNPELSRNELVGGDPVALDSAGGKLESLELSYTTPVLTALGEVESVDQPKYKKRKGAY

[3] = tested on: Alpha-mannosidase (Prunus dulcis); test: Percentage inhibition of Alpha-mannosidase from Almond at 1 mM
[4] = Inhibitory activity towards Alpha-glucosidase from Yeast (maltase); design: species or system Saccharomyces cerevisiae
Beta-glucosidase A = Beta-glucosidase A (Caldicellulosiruptor saccharolyticus, UniProt P10482); test: Inhibitory activity towards Beta-Glucosidase from Caldocellum saccharol.
Chain of Beta-glucosidase A (P10482 whole entry): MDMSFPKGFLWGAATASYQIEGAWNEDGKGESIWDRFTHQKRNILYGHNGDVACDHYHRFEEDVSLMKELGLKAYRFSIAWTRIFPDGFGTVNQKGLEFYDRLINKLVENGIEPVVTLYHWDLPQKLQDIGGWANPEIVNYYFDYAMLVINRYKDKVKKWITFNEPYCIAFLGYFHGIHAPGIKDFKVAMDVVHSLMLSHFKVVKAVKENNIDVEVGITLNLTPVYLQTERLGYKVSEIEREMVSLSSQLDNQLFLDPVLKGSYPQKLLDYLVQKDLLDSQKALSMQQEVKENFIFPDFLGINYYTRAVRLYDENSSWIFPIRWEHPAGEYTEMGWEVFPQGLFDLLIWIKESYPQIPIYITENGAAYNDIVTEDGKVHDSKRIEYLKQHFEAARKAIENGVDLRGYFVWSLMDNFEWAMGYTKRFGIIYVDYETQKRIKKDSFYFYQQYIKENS

Saccharomyces cerevisiae = test: Percentage inhibition of Alpha-glucosidase from Yeast (maltase) at 1 mM

- inhibition [1]: 53%
- inhibition [2]: inactive
- inhibition [3]: 59%
- IC50 [4]: 610 µM
- IC50 (Beta-glucosidase A): 290 µM
- inhibition (Saccharomyces cerevisiae): 55%
SMILES: OC1CNC(CNCC2CCN(Cc3ccccc3)CC2)C1O (stereo unspecified)
